{"source": "patent US6554620B1", "about": "“Aqueous disinfectant/sterilizing agent for foods” (priority 2001, dated 2003)", "key": {"[1]": {"test_system": "Salmonella typhimurium TA100", "test": "Reverse mutation screening assay", "type": "cell-based", "protocol": "(§1) The test was conducted at Biosafety Research Center for Foods, Drugs and Pesticides, in Shizuoka, Japan."}, "[2]": {"test_system": "Salmonella typhimurium TA98", "test": "Reverse mutation screening assay", "type": "cell-based", "protocol": "as §1"}, "[3]": {"test_system": "Escherihia coli (IFO 3972)", "test": "Efficacy comparison (MIC method) of hinokitiol as single substance and the invented agent", "type": "cell-based, Escherichia coli", "design": "key to growth: growth of bacteria is shown as “+”; no growth is shown as “−”", "conditions": "7 days at 30° C.", "protocol": "(§2) Escherihia coli (IFO 3972) and Aspergillus niger (IFO 4414) were used utilizing the minimum inhibitory method (MIC) to conduct a comparison testing the efficacy of hinokitiol as a single substance and the invented aqueous disinfectant.\n(§3) Type II of the invented agent as previously described, having a hinokitiol concentration of 0.1 weight % (1000 ppm) was diluted 10 times, 20 times, 50 times, and 100 times and standard agar plate for E-coli and potato dextrose agar plate for aspergillus niger were prepared for each concentration. With hinokitiol as single substance, for 1000 g of water, 1 g of hinokitiol was used to make 0.1% solution, and this was diluted 10 times, 20 times, 50 times, and 100 times and standard agar plates and potato dextrose plates were prepared at each concentration. E-coli and aspergillus niger were implanted to the plate and cultivated for 7 days at 30° C. and the growth of the bacteria was observed. The result are shown in Table 4 below, where growth of bacteria is shown as “+”, and no growth is shown as “−”."}, "[4]": {"test_system": "Aspergillus niger (IFO 4414)", "test": "Efficacy comparison (MIC method) of hinokitiol as single substance and the invented agent", "type": "cell-based", "design": "key: growth of bacteria is shown as “+”; no growth is shown as “−”", "conditions": "7 days at 30° C.", "protocol": "as §2, §3"}, "[5]": {"test": "Water solubility of hinokitiol", "type": "physicochemical", "text": "It has been said that the water solubility of hinokitiol as a single substance, in weight is maximum 0.2 weight %. However, in our experiment, we could not make it more than 0.1 weight %.\nWith this invention, by mixing hinokitiol with the extract of aloe vera, green tea, low striped bamboo and dokudami, it is possible to make a 1.0 weight % water solution without difficulty. In addition to the above mixture, we have succeeded in making 10 weight % of concentration of hinokitiol in water basis by adding glycerin fatty acid ester as surface active agent and cara saponine, which is an emulsifier. Alcohol (ethanol) is not required as an ingredient to achieve the above noted high concentration of hinokitiol.\nIt is known fact that with the addition of ethanol, it is possible to make 5 weight % water solution but for some foods, adding alcohol is not suitable and can change the taste of foods. Therefore, this invention of non-alcoholic water soluble disinfectant solution has particular significance."}, "[6]": {"conditions": "cited from earlier work"}, "[7]": {"conditions": "positive control requiring S9 mix, 1.0 μg/plate, Table 15"}, "[8]": {"conditions": "positive control requiring S9 mix, 1.0 μg/plate, Table 16"}, "[9]": {"conditions": "positive control requiring S9 mix, 0.5 μg/plate, Table 15"}, "[10]": {"conditions": "positive control requiring S9 mix, 0.5 μg/plate, Table 16"}, "[11]": {"conditions": "positive control not requiring S9 mix, 0.01 μg/plate, Table 15"}, "[12]": {"conditions": "positive control not requiring S9 mix, 0.01 μg/plate, Table 16"}, "[13]": {"conditions": "positive control not requiring S9 mix, 0.1 μg/plate, Table 15"}, "[14]": {"conditions": "positive control not requiring S9 mix, 0.1 μg/plate, Table 16"}, "[15]": {"conditions": "10 times dilution of 0.1 weight % hinokitiol solution"}, "[16]": {"conditions": "20 times dilution of 0.1 weight % hinokitiol solution"}, "[17]": {"conditions": "50 times dilution of 0.1 weight % hinokitiol solution"}, "[18]": {"conditions": "100 times dilution of 0.1 weight % hinokitiol solution"}}, "note": "Values joined by “and” are separate entries in the source; they are usually repeats but may differ in a detail not shown here. Identical values can stand only once. Like-named read-outs stand apart in the source and are kept apart here."}
{"smiles": "Nc1ccc2cc3ccccc3cc2c1", "note": "[2-AA]", "values": [{"measurement": "No. of revertants, mean in parentheses", "setting": "[1]; [7]", "value": 686, "unit": "colonies/plate"}, {"measurement": "No. of revertants, single plates", "setting": "[1]; [7]", "value": "683 colonies/plate and 688 colonies/plate"}, {"measurement": "No. of revertants, mean in parentheses", "setting": "[1]; [8]", "value": 649, "unit": "colonies/plate"}, {"measurement": "No. of revertants, single plates", "setting": "[1]; [8]", "value": "647 colonies/plate and 650 colonies/plate"}, {"measurement": "No. of revertants, mean in parentheses", "setting": "[2]; [9]", "value": 200, "unit": "colonies/plate"}, {"measurement": "No. of revertants, single plates", "setting": "[2]; [9]", "value": "203 colonies/plate and 196 colonies/plate"}, {"measurement": "No. of revertants, mean in parentheses", "setting": "[2]; [10]", "value": 208, "unit": "colonies/plate"}, {"measurement": "No. of revertants, single plates", "setting": "[2]; [10]", "value": "197 colonies/plate and 219 colonies/plate"}]}
{"smiles": "NC(=O)/C(=C\\c1ccc([N+](=O)[O-])o1)c1ccco1", "note": "[AF-2]", "values": [{"measurement": "No. of revertants, mean in parentheses", "setting": "[1]; [11]", "value": 370, "unit": "colonies/plate"}, {"measurement": "No. of revertants, single plates", "setting": "[1]; [11]", "value": "377 colonies/plate and 363 colonies/plate"}, {"measurement": "No. of revertants, mean in parentheses", "setting": "[1]; [12]", "value": 410, "unit": "colonies/plate"}, {"measurement": "No. of revertants, single plates", "setting": "[1]; [12]", "value": "408 colonies/plate and 412 colonies/plate"}, {"measurement": "No. of revertants, mean in parentheses", "setting": "[2]; [13]", "value": 733, "unit": "colonies/plate"}, {"measurement": "No. of revertants, single plates", "setting": "[2]; [13]", "value": "747 colonies/plate and 718 colonies/plate"}, {"measurement": "No. of revertants, mean in parentheses", "setting": "[2]; [14]", "value": 692, "unit": "colonies/plate"}, {"measurement": "No. of revertants, single plates", "setting": "[2]; [14]", "value": "698 colonies/plate and 686 colonies/plate"}]}
{"smiles": "CC(C)c1cccc(=O)c(O)c1", "note": "[Hinokitiol, β-Thujaplicin]", "values": [{"measurement": "growth", "setting": "[3]; [15]", "value": "−"}, {"measurement": "growth", "setting": "[3]; [16]", "value": "+"}, {"measurement": "growth", "setting": "[3]; [17]", "value": "+"}, {"measurement": "growth", "setting": "[3]; [18]", "value": "+"}, {"measurement": "hinokitiol concentration of the highest dilution that is effective (MIC method)", "setting": "[3]; E-coli and Aspergillus niger", "value": 0.01, "unit": "%"}, {"measurement": "growth", "setting": "[4]; [15]", "value": "−"}, {"measurement": "growth", "setting": "[4]; [16]", "value": "+"}, {"measurement": "growth", "setting": "[4]; [17]", "value": "+"}, {"measurement": "growth", "setting": "[4]; [18]", "value": "+"}, {"measurement": "concentration of hinokitiol in water basis obtainable", "setting": "[5]; extracts plus glycerin fatty acid ester and cara saponine, no alcohol", "value": 10, "unit": "weight %"}, {"measurement": "water solubility of hinokitiol as a single substance, in our experiment", "setting": "[5]; in water", "value": "≤ 0.1", "unit": "weight %"}, {"measurement": "hinokitiol water solution obtainable", "setting": "[5]; mixed with extract of aloe vera, green tea, low striped bamboo and dokudami", "value": 1.0, "unit": "weight %"}, {"measurement": "water solubility of hinokitiol as a single substance, maximum as has been said", "setting": "[6]; in water", "value": "≤ 0.2", "unit": "weight %"}, {"measurement": "hinokitiol water solution obtainable", "setting": "[6]; with the addition of ethanol, known fact", "value": 5, "unit": "weight %"}]}
